Data as given in US11439707B2, “Hypocrellin derivative substituted both in a peri-position and in 2-position by amino, preparation method, and application thereof” (priority 2017, dated 2022).

How the values were obtained:
[1] = singlet oxygen efficiency test, reference rose bengal; assay type: physicochemical
[2] = absorption spectrum (maximum absorption wavelength, molar extinction coefficient); assay type: physicochemical

Row | SMILES | singlet oxygen yield [1] [%] | maximum absorption wavelength [2] [nm] | molar extinction coefficient [2]
1 | COc1c(O)c2c(=O)cc(OC)c3c4c(OC)cc(=O)c5c(NC(C(=O)O)C(C)C)c(NC(C(=O)O)C(C)C)c6c(c(c1C(C(C)=O)C(C)=C6)c23)c54 (stereo not drawn) [HB-22a] | 18 | 621 | 21,000 M^−1cm^−1
2 | COc1c(O)c2c(=O)cc(OC)c3c4c(OC)cc(=O)c5c(NC6(CO)CC6)c(NC6(CO)CC6)c6c(c(c1C(C(C)=O)C(C)=C6)c23)c54 (stereo not drawn) [HB-35a] | 32 | 621 | 30,500 M^−1cm^−1
3 | CCNc1c(O)c2c(=O)c(SCCO)c(OC)c3c4c(OC)cc(=O)c5c(NC6CCCC6)c(OC)c6c(c(c1C=C(C)C6C(C)=O)c23)c54 (stereo not drawn) [HB-S-44b] | 18 | 622 | 21,000 M^−1cm^−1
4 | COc1c2c3c4c(c(NC5(CO)CC5)c(=O)c5c(NC6(CO)CC6)cc(OC)c(c6c(OC)cc(O)c(c1=O)c63)c54)C=C(C)C2C(C)=O (stereo not drawn) [HB-35c] | 34 | 619 | 32,500 M^−1cm^−1
5 | COCCOCCNC(=O)CCCNc1c(NCCCC(=O)NCCOCCOC)c2c(=O)cc(OC)c3c4c(OC)cc(=O)c5c(O)c(OC)c6c(c(c1C=C(C)C6)c23)c54 [HC-8a-NH-PEG1] | 30 | 621 | 30,500 M^−1cm^−1
6 | COCCOCCOCCOCCOC(=O)C1CCC(CNc2c3c4c5c(c(OC)c(=O)c6c(O)cc(OC)c(c7c(OC)cc(NCC8CCC(C(=O)OCCOCCOCCOCCOC)CC8)c(c2=O)c74)c65)CC(C)=C3)CC1 (stereo not drawn) [HC-13c-PEG4] | 36 | 632 | 31,500 M^−1cm^−1
7 | CCCCCCNc1c2c3c4c(c(OC)c(=O)c5c(NCCCCCC)cc(OC)c(c6c(OC)cc(O)c(c1=O)c63)c54)CC(C)=C2 [HC-34d] | 32 | 628 | 32,000 M^−1cm^−1
8 | COc1c2c3c4c(c(NCCO)c(=O)c5c(NCCO)cc(OC)c(c6c(OC)cc(O)c(c1=O)c63)c54)C=C(C)C2C(C)=O (stereo not drawn) [HB-2c] | 30 | 628 | 31,000 M^−1cm^−1
9 | COc1c(O)c2c(=O)cc(OC)c3c4c(OC)cc(=O)c5c(NC6CCCCC6C(=O)O)c(NC6CCCCC6C(=O)O)c6c(c(c1C(C(C)=O)C(C)=C6)c23)c54 (stereo not drawn) [HB-16a] | 25 | 620 | 25,500 M^−1cm^−1
10 | COc1c(NCCCC(=O)O)c2c(=O)cc(OC)c3c4c(OC)cc(=O)c5c(O)c(NCCCC(=O)O)c6c(c(c1C(C(C)=O)C(C)=C6)c23)c54 (stereo not drawn) [HB-8b] | 26 | 618 | 28,500 M^−1cm^−1
11 | COc1c2c3c4c(c(NC(CC(=O)O)C(=O)O)c(=O)c5c(O)cc(OC)c(c6c(OC)cc(NC(CC(=O)O)C(=O)O)c(c1=O)c63)c54)C=C(C)C2C(C)=O (stereo not drawn) [HB-27d] | 18 | 620 | 21,500 M^−1cm^−1
12 | COc1c(NCCC2CCC(O)CC2)c2c(=O)cc(OC)c3c4c(OC)cc(=O)c5c(O)c(NCCC6CCC(O)CC6)c6c(c(c1C(C(C)=O)C(C)=C6)c23)c54 (stereo not drawn) [HB-18b] | 21 | 621 | 24,500 M^−1cm^−1
13 | COc1c2c3c4c(c(NC(C(=O)O)C(C)C)c(=O)c5c(O)cc(OC)c(c6c(OC)cc(NC(C(=O)O)C(C)C)c(c1=O)c63)c54)C=C(C)C2C(C)=O (stereo not drawn) [HB-22d] | 22 | 625 | 21,500 M^−1cm^−1
14 | CCNc1c(O)c2c(=O)cc(OC)c3c4c(OC)cc(=O)c5c(NC6CCCC6)c(OC)c6c(c(c1C=C(C)C6C(C)=O)c23)c54 (stereo not drawn) [HB-44b] | 18 | 621 | 21,000 M^−1cm^−1
15 | COCCOCCOCCOCCOCCOCCOC(=O)C1CCCCC1Nc1c(O)c2c(=O)cc(OC)c3c4c(OC)cc(=O)c5c(NC6CCCCC6C(=O)OCCOCCOCCOCCOCCOCCOC)c(OC)c6c(c(c1C=C(C)C6C(C)=O)c23)c54 (stereo not drawn) [HB-16b-PEG6] | 32 | 624 | 30,500 M^−1cm^−1
16 | COCCOCCC(=O)OCCNc1c(NCCOC(=O)CCOCCOC)c2c(=O)cc(OC)c3c4c(OC)cc(=O)c5c(O)c(OC)c6c(c(c1C=C(C)C6C(C)=O)c23)c54 (stereo not drawn) [HB-2a-PEG1] | 30 | 620 | 30,500 M^−1cm^−1
17 | COc1c2c3c4c(c(NCCO)c(=O)c5c(O)cc(OC)c(c6c(OC)cc(NCCO)c(c1=O)c63)c54)C=C(C)C2 [HC-2d] | 34 | 625 | 28,500 M^−1cm^−1
18 | COc1c2c3c4c(c(NC(C(=O)O)C(C)C)c(=O)c5c(NC(C(=O)O)C(C)C)cc(OC)c(c6c(OC)cc(O)c(c1=O)c63)c54)C=C(C)C2C(C)=O (stereo not drawn) [HB-22c] | 22 | 620 | 21,500 M^−1cm^−1
19 | COCCOCCOCCOCCOCCOCCOCCOCCOCCOCCOCCOCCOCCC(=O)OCCNc1c2c3c4c(c(OC)c(=O)c5c(O)cc(OC)c(c6c(OC)cc(NCCOC(=O)CCOCCOCCOCCOCCOCCOCCOCCOCCOCCOCCOCCOCCOC)c(c1=O)c63)c54)CC(C)=C2 [HC-2c-PEG12] | 34 | 630 | 32,500 M^−1cm^−1
20 | COc1c2c3c4c(c(NC5CCC(O)CC5)c(=O)c5c(NC6CCC(O)CC6)cc(OC)c(c6c(OC)cc(O)c(c1=O)c63)c54)C=C(C)C2C(C)=O (stereo not drawn) [HB-17c] | 23 | 622 | 26,000 M^−1cm^−1
21 | COc1c(NCCNCCOCCOCCOCCOCCO)c2c(=O)cc(OC)c3c4c(OC)cc(=O)c5c(O)c(NCCNCCOCCOCCOCCOCCO)c6c(c(c1C(C(C)=O)C(C)=C6)c23)c54 (stereo not drawn) [HB-5b-PEG4] | 31 | 625 | 30,500 M^−1cm^−1
22 | COc1c(O)c2c(=O)cc(OC)c3c4c(OC)cc(=O)c5c(NCCCCCC(=O)O)c(NCCCCCC(=O)O)c6c(c(c1CC(C)=C6)c23)c54 [HC-9a] | 26 | 620 | 26,500 M^−1cm^−1
23 | COc1c(NCCOCCO)c2c(=O)cc(OC)c3c4c(OC)cc(=O)c5c(O)c(NCCOCCO)c6c(c(c1CC(C)=C6)c23)c54 [HC-1b] | 33 | 624 | 27,000 M^−1cm^−1
24 | COCCOC(=O)CCCNc1c(NCCCC(=O)OCCOC)c2c(=O)cc(OC)c3c4c(OC)cc(=O)c5c(O)c(OC)c6c(c(c1C=C(C)C6)c23)c54 [HC-8a-PEG1] | 28 | 621 | 30,000 M^−1cm^−1
25 | COc1c(NCc2cccc[n+]2CCCC(=O)O)c2c(=O)cc(OC)c3c4c(OC)cc(=O)c5c(O)c(NCc6cccc[n+]6CCCC(=O)O)c6c(c(c1C(C(C)=O)C(C)=C6)c23)c54 (stereo not drawn) [HB-38b-N—COOH] | 18 | 620 | 21,500 M^−1cm^−1
